Values after ≈ are worked out from the molar mass of the structure shown. Each block holds one molecule with its values, some of them ahead of it.
Legend:
[1] = Modulation of gamma-secretase in CHO cells expressing human APP695 assessed as inhibition of Abeta42 level after 20 hrs by FRET HTS assay; type: cell-based; settings: Cricetulus griseus
[2] = Kinetic solubility in PBS buffer at pH 7.4 by UV/vis absorbance analysis; type: physicochemical; settings: read-out: Kinetic_solubility
Gamma-secretase = test: Modulation of gamma-secretase in human SH-SY5Y cells overexpressing wild-type human APP751 assessed as inhibition of Abeta42 level after 24 hrs by ELISA; type: cell-based
[3] = Lipophilicity, log D of the compound; type: physicochemical; settings: octanol/water
[4] = Stability in human liver microsomes assessed as compound remaining at 1 uM incubated for 30 mins; type: ADME, Microsome; settings: read-out: Stability
[5] = Stability in rat liver microsomes assessed as compound remaining at 1 uM incubated for 30 mins; type: ADME, Microsome; settings: read-out: Stability
[6] = Stability in mouse liver microsomes assessed as compound remaining at 1 uM incubated for 30 mins; type: ADME, Microsome; settings: read-out: Stability
Cytochrome P450 3A4 = Cytochrome P450 3A4 (Homo sapiens, UniProt P08684); test: Inhibition of recombinant CYP3A4 (unknown origin) by fluorescence-based assay; type: ADME
Cytochrome P450 3A4, sequence (P08684 whole entry): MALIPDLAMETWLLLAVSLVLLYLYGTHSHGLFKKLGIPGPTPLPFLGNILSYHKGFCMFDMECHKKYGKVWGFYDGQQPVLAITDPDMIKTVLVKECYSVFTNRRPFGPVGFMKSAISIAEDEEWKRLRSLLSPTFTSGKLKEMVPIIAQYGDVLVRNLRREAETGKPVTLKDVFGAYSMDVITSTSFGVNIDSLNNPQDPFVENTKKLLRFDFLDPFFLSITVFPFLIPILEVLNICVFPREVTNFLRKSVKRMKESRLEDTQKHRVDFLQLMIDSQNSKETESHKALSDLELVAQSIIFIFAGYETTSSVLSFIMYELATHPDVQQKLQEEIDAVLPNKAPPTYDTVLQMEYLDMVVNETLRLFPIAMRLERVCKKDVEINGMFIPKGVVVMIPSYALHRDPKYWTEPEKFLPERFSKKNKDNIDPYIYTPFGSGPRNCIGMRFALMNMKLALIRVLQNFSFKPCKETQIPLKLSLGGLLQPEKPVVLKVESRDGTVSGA

Cytochrome P450 1A2 = molecular target: T1, Cytochrome P450 1A2 (Homo sapiens, UniProt P05177); test: Inhibition of recombinant CYP1A2 (unknown origin) by fluorescence-based assay; type: ADME
T1 sequence (P05177 whole entry): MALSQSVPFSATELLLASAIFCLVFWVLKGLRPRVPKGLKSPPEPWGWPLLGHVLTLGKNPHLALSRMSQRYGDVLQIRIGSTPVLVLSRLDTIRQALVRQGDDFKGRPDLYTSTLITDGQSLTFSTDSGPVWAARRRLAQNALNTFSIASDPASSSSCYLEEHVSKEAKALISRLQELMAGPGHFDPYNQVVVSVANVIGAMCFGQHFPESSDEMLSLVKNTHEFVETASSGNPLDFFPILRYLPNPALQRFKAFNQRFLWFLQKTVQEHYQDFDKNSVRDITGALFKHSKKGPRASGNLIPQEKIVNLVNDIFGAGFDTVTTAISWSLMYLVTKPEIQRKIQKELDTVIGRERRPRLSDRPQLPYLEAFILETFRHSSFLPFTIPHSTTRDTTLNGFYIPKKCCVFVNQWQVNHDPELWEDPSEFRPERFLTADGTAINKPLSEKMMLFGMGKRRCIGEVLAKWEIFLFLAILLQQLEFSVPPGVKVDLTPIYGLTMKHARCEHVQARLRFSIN

Cytochrome P450 2C9 = Cytochrome P450 2C9 (Homo sapiens, UniProt P11712); test: Inhibition of recombinant CYP2C9 (unknown origin) by fluorescence-based assay; type: ADME
Cytochrome P450 2C9, sequence (P11712 whole entry): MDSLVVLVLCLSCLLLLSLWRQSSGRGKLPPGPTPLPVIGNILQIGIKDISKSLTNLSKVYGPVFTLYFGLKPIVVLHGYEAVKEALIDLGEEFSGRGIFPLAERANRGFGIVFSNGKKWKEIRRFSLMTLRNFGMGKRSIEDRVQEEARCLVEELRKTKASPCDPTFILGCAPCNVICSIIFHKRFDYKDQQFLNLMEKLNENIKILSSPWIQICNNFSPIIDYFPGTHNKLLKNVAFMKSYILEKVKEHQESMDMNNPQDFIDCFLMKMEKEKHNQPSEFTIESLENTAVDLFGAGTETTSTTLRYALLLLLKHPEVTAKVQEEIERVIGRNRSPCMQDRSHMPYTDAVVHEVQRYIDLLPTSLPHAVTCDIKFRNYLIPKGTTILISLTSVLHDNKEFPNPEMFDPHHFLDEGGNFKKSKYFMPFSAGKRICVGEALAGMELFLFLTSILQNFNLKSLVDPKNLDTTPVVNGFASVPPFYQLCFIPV

Cytochrome P450 2C19 = Cytochrome P450 2C19 (Homo sapiens, UniProt P33261); test: Inhibition of recombinant CYP2C19 (unknown origin) by fluorescence-based assay; type: ADME
Cytochrome P450 2C19, sequence (P33261 whole entry): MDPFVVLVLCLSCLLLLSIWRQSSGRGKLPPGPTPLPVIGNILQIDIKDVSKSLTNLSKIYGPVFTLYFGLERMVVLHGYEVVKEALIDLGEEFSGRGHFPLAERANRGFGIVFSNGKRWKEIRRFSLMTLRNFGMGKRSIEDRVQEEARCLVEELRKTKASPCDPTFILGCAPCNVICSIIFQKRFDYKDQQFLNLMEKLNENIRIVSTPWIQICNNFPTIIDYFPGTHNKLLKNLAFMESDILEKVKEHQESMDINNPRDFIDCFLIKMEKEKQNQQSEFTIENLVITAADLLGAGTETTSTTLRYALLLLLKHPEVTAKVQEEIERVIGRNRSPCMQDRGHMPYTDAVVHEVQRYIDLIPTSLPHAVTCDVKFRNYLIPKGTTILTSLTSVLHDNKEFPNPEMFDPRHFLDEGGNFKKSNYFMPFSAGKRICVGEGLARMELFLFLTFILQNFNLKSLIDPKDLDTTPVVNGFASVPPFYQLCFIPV

Cytochrome P450 2D6 = Cytochrome P450 2D6 (Homo sapiens, UniProt P10635); test: Inhibition of recombinant CYP2D6 (unknown origin) by fluorescence-based assay; type: ADME
Cytochrome P450 2D6, sequence (P10635 whole entry): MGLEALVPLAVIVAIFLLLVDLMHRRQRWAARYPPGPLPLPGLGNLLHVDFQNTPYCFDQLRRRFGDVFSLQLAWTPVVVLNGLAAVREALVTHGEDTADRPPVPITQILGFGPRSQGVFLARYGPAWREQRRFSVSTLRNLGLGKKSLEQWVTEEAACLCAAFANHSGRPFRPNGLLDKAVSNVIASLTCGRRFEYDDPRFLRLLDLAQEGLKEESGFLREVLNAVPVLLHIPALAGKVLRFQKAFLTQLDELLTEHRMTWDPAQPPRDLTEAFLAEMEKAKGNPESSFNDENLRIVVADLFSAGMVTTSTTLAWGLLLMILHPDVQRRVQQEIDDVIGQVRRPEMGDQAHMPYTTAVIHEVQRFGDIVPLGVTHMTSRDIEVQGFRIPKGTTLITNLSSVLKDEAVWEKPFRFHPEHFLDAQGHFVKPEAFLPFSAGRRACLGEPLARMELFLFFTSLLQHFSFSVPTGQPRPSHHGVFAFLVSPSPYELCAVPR

[7] = molecular target: Voltage-gated inwardly rectifying potassium channel KCNH2 (Homo sapiens, UniProt Q12809); test: Inhibition of human ERG channel expressed in HEK293 cells by patch-clamp assay; type: cell-based
Voltage-gated inwardly rectifying potassium channel KCNH2, sequence (Q12809 whole entry): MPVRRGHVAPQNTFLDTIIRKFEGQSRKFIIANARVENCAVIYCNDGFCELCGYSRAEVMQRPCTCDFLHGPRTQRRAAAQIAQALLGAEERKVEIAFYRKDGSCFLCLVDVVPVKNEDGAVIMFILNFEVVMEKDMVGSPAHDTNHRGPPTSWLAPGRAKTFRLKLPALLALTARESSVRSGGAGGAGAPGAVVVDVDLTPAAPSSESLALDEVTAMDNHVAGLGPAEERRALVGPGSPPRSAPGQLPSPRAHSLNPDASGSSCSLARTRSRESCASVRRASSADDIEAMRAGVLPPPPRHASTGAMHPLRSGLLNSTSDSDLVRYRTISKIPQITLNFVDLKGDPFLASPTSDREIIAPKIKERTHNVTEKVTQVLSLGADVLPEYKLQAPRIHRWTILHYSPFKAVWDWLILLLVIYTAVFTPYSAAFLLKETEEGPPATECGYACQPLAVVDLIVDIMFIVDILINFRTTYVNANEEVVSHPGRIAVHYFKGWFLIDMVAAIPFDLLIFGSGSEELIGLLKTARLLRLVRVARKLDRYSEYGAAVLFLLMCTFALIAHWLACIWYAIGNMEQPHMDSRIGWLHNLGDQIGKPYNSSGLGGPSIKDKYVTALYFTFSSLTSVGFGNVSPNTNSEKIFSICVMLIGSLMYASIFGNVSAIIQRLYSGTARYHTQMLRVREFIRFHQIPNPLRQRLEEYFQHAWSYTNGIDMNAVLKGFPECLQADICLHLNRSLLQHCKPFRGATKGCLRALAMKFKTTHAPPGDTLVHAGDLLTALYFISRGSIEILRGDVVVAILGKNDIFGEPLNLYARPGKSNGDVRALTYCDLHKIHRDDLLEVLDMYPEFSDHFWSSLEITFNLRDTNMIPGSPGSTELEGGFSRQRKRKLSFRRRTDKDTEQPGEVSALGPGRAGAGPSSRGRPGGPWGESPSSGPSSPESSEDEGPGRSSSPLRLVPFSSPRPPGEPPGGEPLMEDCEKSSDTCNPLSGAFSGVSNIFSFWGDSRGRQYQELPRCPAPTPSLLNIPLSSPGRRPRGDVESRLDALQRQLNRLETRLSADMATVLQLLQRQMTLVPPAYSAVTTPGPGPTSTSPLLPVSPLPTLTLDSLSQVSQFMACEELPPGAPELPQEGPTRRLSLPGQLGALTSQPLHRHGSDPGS

[8] = Apparent permeability in MDCK cells expressing MDR1; type: ADME, cell-based, Canis lupus familiaris; settings: dog
[9] = Efflux ratio of permeability from basolateral to apical over apical to basolateral side of MDCK cells expressing MDR1; type: ADME, cell-based, Canis lupus familiaris; settings: dog
[10] = Protein binding in plasma (unknown origin); type: ADME, cell-free; settings: read-out: PPB (converted)
[11] = Cmax in CD1 mouse at 1 mg/kg, iv administered as single dose by HPLC/MS/MS analysis; type: ADME, organism-based; parameters: dose 1 mg/kg, route intravenous; settings: in vivo
[12] = Tmax in CD1 mouse at 1 mg/kg, iv administered as single dose by HPLC/MS/MS analysis; type: ADME, organism-based; settings: in vivo
[13] = Half life in CD1 mouse at 1 mg/kg, iv administered as single dose by HPLC/MS/MS analysis; type: ADME, organism-based; settings: in vivo
[14] = AUC (last) in CD1 mouse at 1 mg/kg, iv administered as single dose by HPLC/MS/MS analysis; type: ADME, organism-based; parameters: dose 1 mg/kg, time 0 - last, route intravenous; settings: in vivo
[15] = AUC (infinity) in CD1 mouse at 1 mg/kg, iv administered as single dose by HPLC/MS/MS analysis; type: ADME, organism-based; parameters: dose 1 mg/kg, route intravenous, time infinity; settings: in vivo
[16] = Clearance in CD1 mouse at 1 mg/kg, iv administered as single dose by HPLC/MS/MS analysis; type: ADME, organism-based; settings: in vivo
[17] = Volume of distribution at steady state in CD1 mouse at 1 mg/kg, iv administered as single dose by HPLC/MS/MS analysis; type: ADME, organism-based; settings: in vivo, read-out: Vdss
[18] = Ratio of drug level in brain to plasma in CD1 mouse at 1 mg/kg, iv administered as single dose measured after 1 hr by HPLC/MS/MS analysis; type: ADME, organism-based; settings: read-out: BPR
[19] = Cmax in CD1 mouse at 5 mg/kg administered via oral gavage by HPLC/MS/MS analysis; type: ADME, organism-based; parameters: dose 5 mg/kg, route oral; settings: in vivo
[20] = Tmax in CD1 mouse at 5 mg/kg administered via oral gavage by HPLC/MS/MS analysis; type: ADME, organism-based; settings: in vivo
[21] = Half life in CD1 mouse at 5 mg/kg administered via oral gavage by HPLC/MS/MS analysis; type: ADME, organism-based; settings: in vivo
[22] = AUC (last) in CD1 mouse at 5 mg/kg administered via oral gavage by HPLC/MS/MS analysis; type: ADME, organism-based; parameters: dose 5 mg/kg, time 0 - last, route oral; settings: in vivo
[23] = AUC (infinity) in CD1 mouse at 5 mg/kg administered via oral gavage by HPLC/MS/MS analysis; type: ADME, organism-based; parameters: dose 5 mg/kg, time infinity, route oral; settings: in vivo
[24] = Ratio of drug level in brain to plasma in CD1 mouse at 5 mg/kg administered via oral gavage by HPLC/MS/MS analysis; type: ADME, organism-based; settings: read-out: BPR
[25] = Ratio of drug level in brain to plasma in CD1 mouse at 5 mg/kg administered via oral gavage measured after 4 hrs by HPLC/MS/MS analysis; type: ADME, organism-based; settings: read-out: BPR
[26] = Ratio of drug level in brain to plasma in CD1 mouse at 5 mg/kg administered via oral gavage measured after 8 hrs by HPLC/MS/MS analysis; type: ADME, organism-based; settings: read-out: BPR
[27] = Clearance in CD1 mouse at 1 mg/kg administered intravenously by HPLC/MS/MS analysis relative to hepatic blood flow; settings: in vivo, iv

- IC50 [1]: 10 nM
Structure (SMILES): CCc1cc(Nc2nc(-c3ccc(-n4cnc(C)c4)c(F)c3)cs2)c(C)cc1C

- solubility kinetic [2]: < 1.6 µM
- IC50 (Gamma-secretase): 41 nM
Structure (SMILES): CCn1nc2c(c1Nc1nc(-c3ccc(-n4cnc(C)c4)c(F)c3)cs1)CCC2

- solubility kinetic [2]: 4.7 µM (≈ 2 µg/mL)
- IC50 (Gamma-secretase): 63 nM
- logD [3]: 3.64
- remaining at 0.5 h, 1 µM [4]: 51%
- remaining at 0.5 h, 1 µM [5]: 64%
- remaining at 0.5 h, 1 µM [6]: 95%
- IC50 (Cytochrome P450 3A4): 16000 nM
- IC50 (Cytochrome P450 1A2): > 100000 nM
- IC50 (Cytochrome P450 2C9): > 100000 nM
- IC50 (Cytochrome P450 2C19): 82000 nM
- IC50 (Cytochrome P450 2D6): > 100000 nM
- Papp [8]: 0.97 ×10⁻⁶ cm/s
- efflux ratio [9]: 1.6
- fraction unbound [10]: 0.006
- Cmax [11]: 161 ng/mL
- Tmax [12]: 4.98 min
- half-life [13]: 2.4 h
- AUC(0-t) [14]: 335 ng·h/mL
- AUC(0-inf) [15]: 498 ng·h/mL
- clearance [16]: 33.5 mL/min/kg
- Vd [17]: 7.15 L/kg
- Kp at 1 h [18]: 0.64
- Cmax [19]: 1000 ng/mL
- Tmax [20]: 1 h
- half-life [21]: 6 h
- AUC(0-t) [22]: 5390 ng·h/mL
- AUC(0-inf) [23]: 5720 ng·h/mL
- Kp [24]: 0.5
- Kp at 4 h [25]: 0.53
- Kp at 8 h [26]: 0.59
- CL [27]: 40%
Structure (SMILES): CCn1nc(C(C)(C)C)cc1Nc1nc(-c2ccc(-n3cnc(C)c3)c(F)c2)cs1
- IC50 [7]: > 30000 nM

- IC50 (Gamma-secretase): 175 nM
Structure (SMILES): Cc1cn(-c2ccc(-c3csc(Nc4c5c(nn4C(C)(C)C)CCC5)n3)cc2F)cn1

- IC50 (Gamma-secretase): 294 nM
Structure (SMILES): Cc1cn(-c2ccc(-c3csc(Nc4cc(C(C)(C)C)nn4C)n3)cc2F)cn1

- IC50 (Gamma-secretase): > 1000 nM
Structure (SMILES): CCn1nc2c(c1N(C)c1nc(-c3ccc(-n4cnc(C)c4)c(F)c3)cs1)CCCC2

- solubility kinetic [2]: < 1.6 µM
- IC50 (Gamma-secretase): 110 nM
Structure (SMILES): CCn1nc(C(F)(F)F)cc1Nc1nc(-c2ccc(-n3cnc(C)c3)c(F)c2)cs1

- solubility kinetic [2]: 8.1 µM (≈ 4.1 µg/mL)
- IC50 (Gamma-secretase): 475 nM
Structure (SMILES): Cc1cn(-c2ccc(-c3csc(Nc4c5c(nn4CCN4CCCCC4)CCCC5)n3)cc2F)cn1

- IC50 (Gamma-secretase): 179 nM
Structure (SMILES): Cc1cn(-c2ccc(-c3csc(Nc4c5c(nn4CC(F)(F)F)CCCC5)n3)cc2F)cn1

- solubility kinetic [2]: 15 µM (≈ 6.58 µg/mL)
- IC50 (Gamma-secretase): 362 nM
Structure (SMILES): Cc1cn(-c2ccc(-c3csc(Nc4c5c(nn4CCO)CCCC5)n3)cc2F)cn1

- IC50 (Gamma-secretase): 114 nM
Structure (SMILES): CCn1nc2c(c1Nc1nc(-c3ccc(-n4cnc(C)c4)c(F)c3)cs1)CCCCC2

- IC50 (Gamma-secretase): > 1000 nM
Structure (SMILES): Cc1cn(-c2ccc(-c3csc(Nc4c5c(nn4C)CCC5)n3)cc2F)cn1

- IC50 (Gamma-secretase): 216 nM
Structure (SMILES): Cc1cn(-c2ccc(-c3csc(Nc4c5c(nn4C(C)(C)C)CCCC5)n3)cc2F)cn1

- solubility kinetic [2]: 2.6 µM (≈ 1.17 µg/mL)
- IC50 (Gamma-secretase): 49 nM
Structure (SMILES): CCn1nc2c(c1Nc1nc(-c3ccc(-n4cnc(C)c4)c(F)c3)cs1)C(C)CC2(C)C (stereo not given)

- IC50 (Gamma-secretase): 394 nM
Structure (SMILES): CCn1nc(C(C)C)cc1Nc1nc(-c2ccc(-n3cnc(C)c3)c(F)c2)cs1

- IC50 (Gamma-secretase): 148 nM
Structure (SMILES): CCCn1nc2c(c1Nc1nc(-c3ccc(-n4cnc(C)c4)c(F)c3)cs1)CCCC2

- solubility kinetic [2]: < 1.6 µM
- IC50 (Gamma-secretase): 112 nM
Structure (SMILES): Cc1cn(-c2ccc(-c3csc(Nc4c5c(nn4C4CCC4)CCCC5)n3)cc2F)cn1

- IC50 (Gamma-secretase): 225 nM
Structure (SMILES): Cc1cn(-c2ccc(-c3csc(Nc4c5c(nn4C4CCCC4)CCCC5)n3)cc2F)cn1

- solubility kinetic [2]: < 1.6 µM
- IC50 (Gamma-secretase): 55 nM
Structure (SMILES): Cc1cn(-c2ccc(-c3csc(Nc4c5c(nn4CC(C)(C)O)CCCC5)n3)cc2F)cn1

Structure (SMILES): CCn1nc2c(c1Nc1nc(-c3ccc(-n4cnc(C)c4)c(F)c3)cs1)CCCC2
- IC50 (Gamma-secretase): 163 nM

- IC50 (Gamma-secretase): 771 nM
Structure (SMILES): Cc1cn(-c2ccc(-c3csc(Nc4cc(C(F)(F)F)nn4CC(F)(F)F)n3)cc2F)cn1

- IC50 (Gamma-secretase): 280 nM
Structure (SMILES): Cc1cn(-c2ccc(-c3csc(Nc4c5c(nn4C4CCCCC4)CCCC5)n3)cc2F)cn1
